The source of these data is PMC9454246, “The PqsE Active Site as a Target for Small Molecule Antimicrobial Agents against Pseudomonas aeruginosa” (Biochemistry, 2022).

Test [1] addresses T1, PqsE (Pseudomonas aeruginosa, UniProt P20581).
T1 construct: made in house
The test can be described thus: Competitive fluorescence polarization with the BB562 active site probe. The following applies: competition with BB562 active site probe for binding to PqsE; one experiment performed in triplicate. From the text:
(a) Structures of the precursor molecules BB391 and BB393 and the hybrid derivative BB580. Positions denoted 1, 2, and 3 were derivatized to explore the binding affinity for the PqsE active site. […] Polarization value for PqsE-BB562 in the absence of a competitor is defined as 100% probe bound. All polarization values were background-subtracted by the reading for the probe in the absence of PqsE (background fluorescence). […] Both the BB584 molecule and key PqsE amino acid sidechains are shown as sticks. Amino acid sidechain carbons are depicted in gray and BB584 carbons are shown in tan. Iron atoms and water molecules are shown as orange and green spheres, respectively. Oxygen and nitrogen atoms are in red and blue, respectively. Hydrogen bonds are shown as dotted yellow lines.
6xHis-PqsE proteins were purified for biochemical assays (tagged) and crystallography (tag removed), as described previously.[24] Enzyme activities of purified 6xHis-PqsE variants were measured as previously reported with MU-butyrate as the substrate.[25] Fluorescence polarization assays with the BB562 active site probe were performed as described.[24] The melting temperature (Tm) of each purified 6xHis-PqsE variant was measured using DSF as described previously.[24] Interaction between PqsE and RhlR proteins in vitro was measured as described previously using pull-down assays.[24] Pyocyanin production by P. aeruginosa PA14 strains carrying pqsE variants on the pUCP18 plasmid was measured as described.[24] The ability of PqsE variants to increase RhlR transcription factor activity in an E. coli reporter assay was assessed as previously described.[24] All small molecule syntheses and characterization are described in the Supporting Information. […]
a Design of Hybrid Scaffold b Core Aromatic Group […]
Engaging Hydrophobic Groove […]
the amide bond orientation. b) Optimization of “position 2”, the core aromatic group. c) Optimization of “position 3”, the hydrophobic tail. Competition curves with the BB562 active site fluorescent probe were f it from the average of triplicates and erro r bars represent standard deviation s. Polarization value for PqsE-BB562 in the absence of competitor is defined as 100% Probe Bound. All polarization values were background-subtracted by the reading for the probe in the absence of PqsE (background fluorescence).
A general note: Fluorescence polarisation rises when a labelled molecule tumbles more slowly, as on binding a larger partner.

The target of test [2] is T2, PqsE–RhlR interaction (Pseudomonas aeruginosa, UniProt P20581).
T2 construct: made in house
The test can be described thus: PqsE–RhlR interaction (in vitro pull-down). Format: binding. The following applies: in words. The protocol: (§1) 6xHis-PqsE proteins were purified for biochemical assays (tagged) and crystallography (tag removed), as described previously.[24] Enzyme activities of purified 6xHis-PqsE variants were measured as previously reported with MU-butyrate as the substrate.[25] Fluorescence polarization assays with the BB562 active site probe were performed as described.[24] The melting temperature (Tm) of each purified 6xHis-PqsE variant was measured using DSF as described previously.[24] Interaction between PqsE and RhlR proteins in vitro was measured as described previously using pull-down assays.[24] Pyocyanin production by P. aeruginosa PA14 strains carrying pqsE variants on the pUCP18 plasmid was measured as described.[24] The ability of PqsE variants to increase RhlR transcription factor activity in an E. coli reporter assay was assessed as previously described.[24] All small molecule syntheses and characterization are described in the Supporting Information.

For test [3], the target named is T1, PqsE. The conditions noted are these: in words; cited from earlier work.
Test [4] concerns the target PqsE(D73A) (Pseudomonas aeruginosa, UniProt P20581, D73A). The following applies: read-out: BB562 Binding Kapp; PqsE variant D73A; 2 µM MnCl2. The protocol: (§2) (a) Structure of PqsE(E182W) (blue) overlaid with that of WT PqsE (PDB: 2Q0I, gray). The active site iron atoms are shown in orange. […] (b) Structure of PqsE(E182W/E280A) (maroon) overlaid with that of WT PqsE (as in a). In panels a and b, residue E280 is shown in stick representation. […] Kapp was determined in two independent experiments performed in triplicate. (d) Hydrolysis of 4-methylumbelliferyl butyrate (MU-butyrate) by the designated purified PqsE proteins. Values are represented as % activity of WT PqsE protein. Results are the average of two independent experiments performed in triplicate. Error bars represent standard deviations. (e) First derivative plots (dF/dT is defined as the change in SYPRO Orange fluorescence divided by change in temperature) of melting curves for the designated PqsE proteins. The peak of each curve is defined as the Tm of that protein.
as §1
(§3) a Stability of PqsE Proteins WT
(§4) Hydrolysis of MU-butyrate
(§5) Fig. S3. Biochemical characterization of purified PqsE variants. a) First derivative plots of melt curves for
(§6) PqsE prot eins. All proteins were tested at 5 µM with 200 µM MnCl 2. dF/dT indicates the change in SYPRO
(§7) Orange fluorescence divided by the change in tempera ture.
(§8) Results are the average of two independent experiments performed in triplicate.
(§9) Error bars represent standard deviations.

Test [5] deals with PqsE(D73A/E182W) (Pseudomonas aeruginosa, UniProt P20581, D73A/E182W). The conditions noted are these: read-out: BB562 Binding Kapp; PqsE variant D73A/E182W; 2 µM MnCl2; error ND (could not be calculated). The protocol: as §2, §1, §3, §4, §5, §6, §7, §8, §9
For test [6], the target named is PqsE(D73A/E280A) (Pseudomonas aeruginosa, UniProt P20581, D73A/E280A). The conditions noted are these: read-out: BB562 Binding Kapp; PqsE variant D73A/E280A; 2 µM MnCl2. As to the method: as §2, §1, §3, §4, §5, §6, §7, §8, §9
In test [7] the target is PqsE(D73A/NI) (Pseudomonas aeruginosa, UniProt P20581, D73A/R243A/R246A/R247A). The following applies: read-out: BB562 Binding Kapp; PqsE variant D73A/NI; 2 µM MnCl2; error ND (could not be calculated). As to the method:
as §2, §1, §3, §4, §5, §6, §7, §8, §9

Test [8] addresses PqsE(E182W) (Pseudomonas aeruginosa, UniProt P20581, E182W). The protocol:
as §2, §1, §3, §4, §5, §6, §7, §8, §9

Test [9] has as its target PqsE(E182W/E280A) (Pseudomonas aeruginosa, UniProt P20581, E182W/E280A). The protocol:
as §2, §1, §3, §4, §5, §6, §7, §8, §9

In test [10] the target is PqsE(E182W/NI) (Pseudomonas aeruginosa, UniProt P20581, E182W/R243A/R246A/R247A). The conditions noted are these: read-out: BB562 Binding Kapp; PqsE variant E182W/NI; 2 µM MnCl2; error ND (could not be calculated). As to the method:
as §2, §1, §3, §4, §5, §6, §7, §8, §9

The target of test [11] is PqsE(E280A) (Pseudomonas aeruginosa, UniProt P20581, E280A). The following applies: read-out: BB562 Binding Kapp; PqsE variant E280A; 2 µM MnCl2. The protocol:
as §2, §1, §3, §4, §5, §6, §7, §8, §9

Test [12] concerns the target PqsE(NI) (Pseudomonas aeruginosa, UniProt P20581, R243A/R246A/R247A). The following applies: read-out: BB562 Binding Kapp; PqsE variant NI (R243A/R246A/R247A); 2 µM MnCl2. As to the method: as §2, §1, §3, §4, §5, §6, §7, §8, §9
Test [13] addresses PqsE(NI/E280A) (Pseudomonas aeruginosa, UniProt P20581, E280A/R243A/R246A/R247A). The following applies: read-out: BB562 Binding Kapp; PqsE variant NI/E280A; 2 µM MnCl2. The protocol:
as §2, §1, §3, §4, §5, §6, §7, §8, §9

The target in test [14] is WT PqsE (Pseudomonas aeruginosa, UniProt P20581). The conditions noted are these: read-out: BB562 Binding Kapp, 2 µM MnCl2, two independent experiments in triplicate. The protocol: as §2, §1, §3, §4, §5, §6, §7, §8, §9

Take `O=C(Nc1cccc(-c2ccn[nH]2)c1)c1cccc2cn[nH]c12` [BB391]: a half-maximal response in test [1] (EC50) required 160 ± 54 nM. Besides, the “inhibition/disruption of the PqsE–RhlR interaction” value (from here on “inhibition/disruption”) in test [2] is “none of the three compounds disrupt the PqsE–RhlR interaction”. In addition, the “competition with the BB562 active site probe for binding to PqsE” value in test [3] is “mid-nanomolar”.

On to `CCC(C)(CNC(=O)Nc1ccc(C(=O)Nc2nccs2)cc1)N1CCOCC1` (stereo not drawn) [BB393], for which the EC50 (as a rule, the concentration at which the effect is half-maximal) in [1] amounted to 93 ± 29 nM. Besides, in [2], the “inhibition/disruption” value was “none of the three compounds disrupt the PqsE–RhlR interaction”. The “competition with the BB562 active site probe for binding to PqsE” value in test [3] is on record as “mid-nanomolar”.

For the molecule `O=C(NCCCn1cc(-c2ccc(NC(=O)c3cccc4cn[nH]c34)cc2)nn1)c1ccc2c(c1)C(=O)OC21c2ccc(O)cc2Oc2cc(O)ccc21` [BB562], the Kd in test [4] was 507 ± 380 nM; in [5] it was 8120 nM; in test [6], 468 ± 300 nM; in test [7] it was 564 nM; in test [8] (read-out: BB562 Binding Kapp, PqsE variant E182W, 2 µM MnCl2) it was 5730 ± 4000 nM; in test [9] (read-out: BB562 Binding Kapp, PqsE variant E182W/E280A, 2 µM MnCl2) it was 418 ± 160 nM. Further, the Kd was 4330 nM in [10]; 210 ± 90 nM in test [11]; 428 ± 100 nM in test [12]; 669 ± 220 nM in [13]; 416 ± 170 nM in test [14]. In addition, the “binding affinity for the active site fluorescent probe” value in test [8] (PqsE(E182W), in words, relative to WT PqsE) was “reduced binding affinity”; in test [9] (PqsE(E182W/E280A), in words, relative to WT PqsE), “WT binding affinity”.

`CCC(C)(CNC(=O)Nc1ccc(NC(=O)c2cccc3cn[nH]c23)cc1)N1CCOCC1` (stereo not drawn) [BB580] showed an EC50 in [1] of 99 nM.

With `CCC(C)(CNC(=O)Nc1ccc(C(=O)Nc2cccc3cn[nH]c23)cc1)N1CCOCC1` (stereo not drawn) [BB581], in test [1], a half-maximal response (EC50) required 281 nM.

Turning to `O=C(NCc1cnccn1)Nc1ccc(NC(=O)c2cccc3cn[nH]c23)cc1` [BB582], the response in test [1] was half-maximal at 302 ± 141 nM (EC50).

Regarding `O=C(NCc1ccccc1)Nc1ccc(NC(=O)c2cccc3cn[nH]c23)cc1` [BB583], a half-maximal effect in [1] (EC50) was put at 71 nM.

Turning to `CC(C)(C)CNC(=O)Nc1ccc(NC(=O)c2cccc3cn[nH]c23)cc1` [BB584], a half-maximal effect in [1] (EC50) was put at 34 nM. Further, in test [2], the “inhibition/disruption” value was “none of the three compounds disrupt the PqsE–RhlR interaction”.

As for `CCC(C)(CNC(=O)Nc1cnc(NC(=O)c2cccc3cn[nH]c23)s1)N1CCOCC1` (stereo not drawn) [BB585], the EC50 in test [1] was over 1000 nM.

Regarding `CCC(C)(CNC(=O)Nc1cc(NC(=O)c2cccc3cn[nH]c23)[nH]n1)N1CCOCC1` (stereo not drawn) [BB586], the 50% effective concentration (EC50) in [1] is over 1000 nM.

On to `CCC(CNC(=O)Nc1ccc(NC(=O)c2cccc3cn[nH]c23)cc1)N1CCOCC1` (stereo not drawn) [BB587], for which, in test [1], a half-maximal effect (EC50) was put at 273 nM.

Molecule `CC(CNC(=O)Nc1ccc(NC(=O)c2cccc3cn[nH]c23)cc1)N1CCOCC1` (stereo not drawn) [BB588] yielded an EC50 in [1] of 290 nM.

Consider `CCC(C)(CNC(=O)Nc1ccc(NC(=O)c2cccc3cn[nH]c23)nc1)N1CCOCC1` (stereo not drawn) [BB589], for which, in test [1], a half-maximal response (EC50) required 608 ± 647 nM.
